The results in this text go back to ChEMBL document CHEMBL4406898, “Dual mode of binding of anti cancer drug epirubicin to G-quadruplex [d-(TTAGGGT)]4 containing human telomeric DNA sequence induces thermal stabilization” (Bioorg Med Chem, 2019).

SMILES strings stand for the structures.

Data set [1] deals with Quadruplex DNA. In words: Binding affinity to human telomeric 7 G-quadruplex DNA assessed as binding constant Kb1. It counts as nucleic-acid assay.
The subject of data set [2] is Quadruplex DNA. Kind of data set: Binding affinity to human telomeric 7 G-quadruplex DNA assessed as binding constant Kb2. It counts as nucleic-acid assay.
In the next data set the target is Albumin (Homo sapiens, UniProt P02768). In words: Binding affinity to human serum albumin assessed as binding constant after 24 hrs by absorption spectroscopy. It counts as ADME. The following applies: isolated protein.
Albumin, sequence (P02768 whole entry): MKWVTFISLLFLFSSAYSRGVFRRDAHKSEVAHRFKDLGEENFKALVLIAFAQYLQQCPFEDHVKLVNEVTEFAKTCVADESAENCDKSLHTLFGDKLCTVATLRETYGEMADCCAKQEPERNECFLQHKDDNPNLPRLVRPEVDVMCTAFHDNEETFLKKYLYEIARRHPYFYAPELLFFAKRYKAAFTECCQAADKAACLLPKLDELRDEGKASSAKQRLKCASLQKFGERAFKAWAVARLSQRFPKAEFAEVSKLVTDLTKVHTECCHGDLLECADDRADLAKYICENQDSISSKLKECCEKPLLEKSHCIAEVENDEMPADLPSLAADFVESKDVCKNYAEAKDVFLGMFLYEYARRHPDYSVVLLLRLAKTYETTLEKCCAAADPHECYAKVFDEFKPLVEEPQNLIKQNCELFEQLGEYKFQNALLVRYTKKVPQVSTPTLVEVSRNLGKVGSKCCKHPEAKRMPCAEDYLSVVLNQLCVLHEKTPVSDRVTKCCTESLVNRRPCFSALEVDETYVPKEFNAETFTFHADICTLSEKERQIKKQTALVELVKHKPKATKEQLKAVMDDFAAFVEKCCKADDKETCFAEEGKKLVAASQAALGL

As for `COc1cccc2c1C(=O)c1c(O)c3c(c(O)c1C2=O)C[C@@](O)(C(=O)CO)C[C@@H]3O[C@H]1C[C@H](N)[C@H](O)[C@H](C)O1.Cl` [DOXORUBICIN HYDROCHLORIDE], the Kb in the data set with Quadruplex DNA [1] is 1.1 ×10⁶ /M; in the data set with Quadruplex DNA [2], 0.6 ×10⁶ /M; at Albumin, 3 ×10³ /M.
